{
  "source": "patent US6479233B1",
  "about": "“Electrogenerated chemiluminescence labels for analysis and/or referencing” (IGEN International, Inc., priority 1994, dated 2002)",
  "key": {"[1]": {"assay": "Fluorescence spectra (CCD camera, 366 nm UV excitation)", "type": "physicochemical", "details": "for fluorescence maximum: pH 8.5 sodium phosphate buffer", "description": "(§1) Fluorescence and ECL spectra were recorded using a charge-coupled device (CCD) camera and spectrometer (1 mm entrance slit) interfaced to a Dell System 200 personal computer (Austin, Tex.) as previously described. The same procedures (spectral calibration etc.) were followed except that different pulse sequences were used and the CCD detector was maintained at −110° C. for the TPrA/THCOOH and TPrA/DPAS experiments and −100° C. for the S2O8^2−/DPAS experiments. Excitation for the fluorescence spectra was achieved by holding a longwave (366 nm) UV lamp (UVP, Inc., San Gabriel, Calif.; model UVGL-25; sold by Fisher Scientific, Pittsburgh, Pa.) next to the cell and at right angles to the entrance slit of the spectrometer."}, "[2]": {"assay": "ECL spectra (CCD camera and spectrometer)", "type": "physicochemical", "set-up": "wavelength centered emission: unit not given here", "details": "for ECL maximum: pH 8.5 sodium phosphate buffer", "description": "as §1\nThe DPAS/TPrA ECL spectrum and emission vs. potential scans utilized a 6×9 mm Pt gauze flag (52 mesh gauze; Aldrich) working electrode, an AgQRE and a round (9 mm diameter, 0.5 mm thick) Au foil counter electrode. The 2-THCOOH ECL spectrum also utilized this arrangement. The gauze working electrode was cleaned prior to each experiment by immersion in concentrated nitric acid followed by rinsing in distilled water and heating in a bunsen burner flame.\nThe DPAS/S2O8^2− ECL spectrum and emission vs. potential scan utilized a 2.0 mm diameter Pt disk working electrode sealed in glass in combination with a Pt wire counter electrode and AgQRE."}, "[3]": {"assay": "Cyclic voltammetry / standard potentials", "type": "physicochemical", "description": "Cyclic voltammetry without photon detection was obtained by using either a BAS 100A Electrochemical Analyzer (Bioanalytical Systems, West Lafayette, Ind.) or a Princeton Applied Research (PAR) model 173/175 potentiostat/universal programmer (Princeton, N.J.) and Omnigraphic 20000 X-Y recorder (Bausch and Lomb-Houston Instrument Division, Austin, Tex.). Cyclic voltammograms with simultaneous photon detection were recorded using the PAR 173/175 in conjunction with a Hamamatsu C1230 photon counter (Bridgewater, N.J.) equipped with a Hamamatsu R928-P photomultiplier tube. The photomultiplier tube was housed in a water jacketed Products For Research, Inc. model TE308TSRF refrigerated chamber maintained at −10° C. Primary cooling of the water jacket to 10° C. was accomplished using an MGW Lauda model RMS6 refrigeration unit (sold by Brinkmann Instruments Co., Westbury, N.Y.). For plots of ECL intensity vs. potential, the output from the photon counter was fed into the Y-axis of the X-Y recorder during potential scans.\nExcept where noted, all electrochemical and ECL experiments utilized a conventional 3-electrode cell configuration. Pt disk working electrodes were polished on a felt pad (Buehler, Ltd., Lake Bluff, Ill.) before each experiment run with 0.05 μm alumina (Buehler, Ltd.) suspended in water.\nFor cyclic voltammetry runs without photon detection, the CPZ embodiment utilized a highly-oriented pyrolytic graphite (HOPG; Union Carbide, Cleveland, Ohio) working electrode (6 mm dia. disk with freshly exposed material for each experiment), Pt wire counter electrode and Ag quasi-reference electrode (AgQRE) in a recently describe configuration. See Xu, X.; Bard, A. J. Langmuir, 1994, 10, 2409. Similar runs for all other compounds utilized a 1.5 mm diameter Pt disk working electrode sealed in glass in combination with a Pt wire counter electrode and AgQRE.\nNonaqueous potential referencing to ferrocene was accomplished by adding the standard directly to the solutions. […]"}, "[4]": {"set-up": "peak emission: unit not given here", "details": "cited from earlier work; for fluorescence efficiency φF: aqueous media"}, "[5]": {"details": "non-aqueous ion annihilation scheme; cited from earlier work"}, "[6]": {"assay": "Maximum solubility of aqueous DPAS in sodium phosphate buffer", "type": "physicochemical", "details": "0.15 M sodium phosphate buffer (pH 7.5)", "from_the_text": "The maximum solubility of aqueous DPAS in 0.15 M sodium phosphate buffer (pH 7.5) is approximately 1×10^−5 M. At this low concentration, no anodic current can be observed for DPAS above the background oxidation of water as shown in FIG. 1. However, if 1×10^−5 M DPAS is oxidized in the presence of 0.15 M TPrA, an emission that coincides with an oxidation wave occurs that is superimposed on the TPrA oxidation and background oxidation of water as shown in FIGS. 2a-2b. The fact that an oxidation current is observed for 1×10^−5 M DPAS only in the presence of TPrA implicates a catalytic current enhancement due to the regeneration of DPAS via reduction of DPAS^+ by TPrA or an intermediate. For this catalysis, the cyclic sequence of reactions is analogous to equation schemes (5), (6a), (7), (8) or (10) and (11), and (9) above where Ru(bpy)3^3+/2+/+ is replaced by DPAS^+/0/− respectively, XY^z is TPrA, X^x is Pr2NCH.Et and Y^y is H^+. Despite the low DPAS concentration, 1×10^−5 M, this emission is visibly blue when viewed in a dark room and no emission is observed in the absence of either TPrA or DPAS."}},
  "note": "Like-named read-outs stand apart in the source and are kept apart here.",
  "data": [
    {"smiles": "O=C(O)c1ccc2c(c1)Sc1ccccc1S2", "note": "[2-THCOOH, 2-thianthrenecarboxylic acid]", "values": [
      {"measurement": "fluorescence maximum", "setting": "[1]; 0.15 M TPrA", "value": 480, "unit": "nm"},
      {"measurement": "ECL maximum", "setting": "[2]; 0.15 M TPrA", "value": 570, "unit": "nm"},
      {"measurement": "oxidation potential", "setting": "[3]; aqueous solution, pH 8.5 sodium phosphate buffer, Pt electrode, vs SCE", "value": "~+1.0 V"}
    ]},
    {"smiles": "[Ru+2].c1ccc(-c2ccccn2)nc1.c1ccc(-c2ccccn2)nc1.c1ccc(-c2ccccn2)nc1", "note": "[Ru(bpy)3^2+, tris (2,2-bipyridine)ruthenium(II), reference compound]", "values": [
      {"measurement": "fluorescence efficiency φF", "setting": "[4]", "value": "about 0.05"}
    ]},
    {"smiles": "c1ccc2c(c1)Sc1ccccc1S2", "note": "[thianthrene, reference compound]", "values": [
      {"measurement": "emission maximum of fluorescence", "setting": "[4]; in MeCN", "value": 434, "unit": "nm"},
      {"measurement": "ECL peak intensity wavelength", "setting": "[5]", "value": 434, "unit": "nm"}
    ]},
    {"smiles": "O=S(=O)([O-])c1ccc2c(-c3ccccc3)c3ccccc3c(-c3ccccc3)c2c1.[Na+]", "note": "[DPAS, sodium 9,10-diphenylanthracene-2-sulfonate]", "values": [
      {"measurement": "solubility", "setting": "[6]", "value": "~10", "unit": "µM"},
      {"measurement": "singlet excited state energy Es", "setting": "[1]", "value": 2.9, "unit": "eV"},
      {"measurement": "fluorescence peak intensity wavelength", "setting": "[1]; 1.1 mM DPAS, 25 mM (NH4)2S2O8, MeCN-water 1:1", "value": 430, "unit": "nm"},
      {"measurement": "fluorescence peak intensity wavelength", "setting": "[1]; 1×10^−5 M DPAS, 0.15 M TPrA, pH 7.5 sodium phosphate buffer", "value": 430, "unit": "nm"},
      {"measurement": "ECL peak intensity wavelength", "setting": "[2]; 1.1 mM DPAS, 25 mM (NH4)2S2O8, MeCN-water 1:1, reduction at −2.2 V vs SCE", "value": 430, "unit": "nm"},
      {"measurement": "ECL peak intensity wavelength", "setting": "[2]; 1×10^−5 M DPAS, 0.15 M TPrA, pH 7.5 sodium phosphate buffer, oxidation", "value": 430, "unit": "nm"},
      {"measurement": "wavelength centered emission", "setting": "[2]; emission spectra of FIG. 19", "value": 430},
      {"measurement": "E° of DPAS+/DPAS", "setting": "[3]; oxidation", "value": "≈ +1.3 V vs SCE"},
      {"measurement": "E° of DPAS/DPAS−", "setting": "[3]; reduction", "value": "≈ −1.9 V vs SCE"},
      {"measurement": "fluorescence efficiency φF", "setting": "[4]", "value": 0.87},
      {"measurement": "peak emission", "setting": "[4]; fluorescence", "value": 428}
    ]},
    {"smiles": "O=C(O)c1cccc2c1Sc1ccccc1S2", "note": "[1-THCOOH, 1-thianthrenecarboxylic acid]", "values": [
      {"measurement": "fluorescence maximum", "setting": "[1]; 0.15 M TPrA", "value": 505, "unit": "nm"},
      {"measurement": "ECL maximum", "setting": "[2]; 0.15 M TPrA", "value": 570, "unit": "nm"}
    ]}
  ]
}
